Laboratory results taken from paper PMC4445529, “Small molecule inhibition of group I p21-activated kinases in breast cancer induces apoptosis and potentiates the activity of microtubule stabilizing agents” (Breast Cancer Research : BCR, 2015).

Molecular target: T1, PAK4 (Homo sapiens, UniProt O96013)
T1 construct: kinase domain
Assay: Z'-LYTE FRET peptide kinase assay with recombinant enzyme
Format: biochemical

T1 sequence (O96013 291-591 limits assumed): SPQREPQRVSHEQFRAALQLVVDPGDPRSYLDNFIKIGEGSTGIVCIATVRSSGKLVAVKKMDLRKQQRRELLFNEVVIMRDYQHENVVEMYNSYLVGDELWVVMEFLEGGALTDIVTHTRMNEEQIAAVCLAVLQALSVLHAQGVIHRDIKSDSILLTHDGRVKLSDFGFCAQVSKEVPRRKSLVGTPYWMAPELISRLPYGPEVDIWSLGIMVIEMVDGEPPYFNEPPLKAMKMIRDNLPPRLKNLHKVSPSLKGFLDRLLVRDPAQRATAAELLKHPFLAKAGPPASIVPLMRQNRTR

Ki: 2.4 µM
Structure (SMILES): CCn1c(=O)c(-c2ccc(-c3cncc(C)n3)cc2Cl)cc2cnc(NCCC3CCN(C)CC3)nc21 [FRAX1036]
